In patent publication US6300327A, “Compositions and methods for potentiation of neurotrophin activity” (The University of Southern California, priority 1997, dated 2001):
“Also recorded” adds a separate entry of the source. Read-outs that look alike come from different tables or passages of the source.

How the values were obtained:
neurotrophin activity = assay: Neurotrophin potentiation in vitro (overall statements); assay type: cell-based
[1] = tested on: chick dorsal root ganglia neurons (DRG); assay: Survival of dissociated chick DRG neurons (embryonic day 9); assay type: cell-based
Experimental: DRGs of embryonic day 9 chicks were dissected and dissociated using enzymatic and mechanical procedures as described in the literature [Rosenthal, A. et al., "Primary Structure and Biological Activity of a Novel Human Neurotrophic Factor," Neuron 4:767-773 (1990)]. 1800 neurons were plated per well in 96-well tissue culture plates pretreated with polyornithine (500 μg/ml) and laminin (10 μg/ml). Cells were incubated for 48 hrs with or without growth factors and the indicated concentrations of K-252b. Phase-bright cells with elaborated neurites 5× the diameter of the cell bodies were then counted.
Similar to the findings obtained in primary cultures of brain cholinergic neurons, low concentration of K-252b (50 nM) potentiated the survival promoting action of a maximally effective concentration of NT-3 (FIG. 3). Survival of dissociated chick DRG neurons in presence of rhNGF (100 ng/ml) or rhNT-3 (100 ng/ml) and K-252b is illustrated in FIG. 3; concentrations on the horizontal axis are for K-252b. The columns represent means +SEMs. […] High concentrations of K-252b (10 μM) inhibited the action of NGF on sensory neurons, as found for cholinergic neurons (FIG. 3).

trkB = assay: Cell-free tyrosine phosphorylation of recombinant human trkB expressed in Sf9 insect cells; assay type: biochemical; settings: 10 μM K-252b
Experimental: Human trk and trkB were expressed in Sf9 insect cells transfected using a baculovirus system. The trk proteins were immunoprecipitated as described above and the precipitates were incubated with 20 μCi [gamma-^32 P]ATP, 10 mM MnCl2, 20 mM Tris, pH 7.4, for 5 min at 25° C. in the presence of increasing amounts of K-252b or control solution. Phosphorylated proteins were analyzed as described for FIG. 4B. The tyrosine kinase activity of the trk and trkB proteins was activated in the absence of ligand, a common observation for receptor tyrosine kinase produced in the baculovirus system. The trk and trkB proteins were 25% pure as assayed by SDS-PAGE.
K-252b interacts directly with the trk and trkB protein. Human trk and trkB were expressed in Sf9 insect cells transfected using a baculovirus system. trk proteins were immunoprecipitated and the precipitates were incubated with [gamma^32 P]ATP in the presence of increasing amounts of K-252b or control solution.

[2] = target: cGMP-dependent protein kinase; settings: in vitro assay systems; cited from earlier work
[3] = tested on: protein kinase activity of the platelet-derived growth factor; settings: cell-free preparations; cited from earlier work
protein kinase C = settings: in vitro assay systems; cited from earlier work
[4] = tested on: midbrain dopaminergic neurons (cultures of ventral mesencephalon); assay: Dopamine uptake in primary cultures of fetal rat ventral mesencephalon; assay type: cell-based; settings: for activity at 5 µM: Rattus norvegicus, Neuron; for Dopamine uptake, Mean ± SEM: n=4
Experimental: Primary cultures of fetal rat brain septal and mesencephalic cells were prepared in a heretofore known manner [Knusel et al., supra]. Briefly, defined areas were dissected from fetal rat brains (Wistar, E15-16, Charles River, Mass.). The septal area contained the cholinergic neurons from septum, diagonal band of Broca and nucleus basalis. The ventral mesencephalon containing the dopaminergic neurons of the substantia nigra and the ventral tegmental area was dissected and dissociated mechanically. The cells were plated in 16 mm multiwell plates precoated with polyethyleneimine (1 mg/ml, 37° C., overnight), containing 0.5 ml modified L-15 medium supplemented with 5% heat inactivated horse serum and 0.5% heat inactivated fetal calf serum. Modified L-15 was prepared [Knusel et al., "Selective and Nonselective Stimulation of Central Cholinergic and dopaminergic Development in vitro by Nerve Growth Factor, Basic Fibroblast Growth Factor, Epidermal Growth Factor, Insulin and the Insulin-like Growth Factors I and II," J. Neurosci. 10:558-570 (1990)] by adding various amino acids, vitamins, antibiotics, glucose and NaHCO3 to Leibovitz's L-15 medium (Gibco, Grand Island, N.Y.). Plating densities were 4×10^5 cells/cm^2 for basal forebrain cultures and 3×10^5 cells/cm^2 for mesencephalic cultures. Of these cells, 0.5 to 1% were cholinergic or dopaminergic, respectively. Growth factors were typically added on the second day of culture and the cells were grown for 5 or more days. For ChAT assays tissue was homogenized in 250 μl of 50 mM Tris-HCl buffer, pH 6.0 with 0.3% Triton X-100. [1-^14 C]acetylcoenzyme A (NEN) concentration was 20 μM and specific activity 4.09 Ci/mol. To measure dopamine uptake, cultures were preincubated for 5 min at 37° C. with 250 μl incubation solution (5 mM glucose, 1 mM ascorbic acid in PBS) containing 1 mM pargyline. [^3 H]dopamine (37 Ci/mmol) was then added to give a final concentration of 50 nM and the cultures were incubated for another 15 minutes. Blanks were obtained by incubating cells at 0° C.
In Table 1, dopamine uptake is given as fmol/min/culture dish. Cultures were grown in 24-well plates for 7 days in L-15 medium with 5% horse and 0.5% fetal bovine serum and treated with growth factors and K-252b from the second day of culture. rhBDNF, 200 ng/ml; des-IGF-1, 1 μg/ml; n=4; *different from respective control group, p <0.01 (Student's t-test). The apparent difference between control cultures grown in presence and absence of K-252b was statistically not significant. The experiment shown is a representative case of a total of 5 independent experiments.

phospholipase C gamma-1 = assay: Tyrosine phosphorylation of phospholipase C gamma-1 and other cellular proteins in PC12 cells; assay type: cell-based
Experimental: To measure the status of trk tyrosine phosphorylation, PC12 cells were lysed and immunoprecipitated with anti-trk serum. The trk proteins were subjected to 7.5% SDS-PAGE and analyzed by immunoblotting with anti-phosphotyrosine antibodies as described in detail in the literature [Kaplan, D. R. et al., "PDGF beta receptor stimulates tyrosine phosphorylation of GAP and association of GAP with a signaling complex," Cell 61:125-133 (1990)]. Tyrosine phosphorylation of cellular proteins was assayed by probing Western blots of lysates of PC12 cells incubated with K-252b and NT-3 or NGF with anti-phosphotyrosine antibodies. Phospholipase C gammal was identified in these blots as described elsewhere [Vetter, M.L. et al., "Nerve growth factor rapidly stimulates tyrosine phosphorylation of phospholipase C-gammal by a kinase activity associated with the product of trk protooncogene," Proc. Natl Acad. Sci. USA 88:5650-5654 (1991)].

CC12OC(CC1(O)C(=O)O)n1c3ccccc3c3c4c(c5c6ccccc6n2c5c31)CNC4=O (stereo not drawn) [K-252b]
effect on actions of NT-3 (neurotrophin activity; nM concentrations): selectively potentiates | effect on actions of all neurotrophins (neurotrophin activity; μM concentrations): inhibits the actions of all neurotrophins | effect on survival mediated by NGF or BDNF ([1]; 50 nM K-252b): failed to influence survival | number of neurons supported by combination with NT-3 ([1]; 50 nM K-252b + NT-3): identical to that supported by NGF alone | effect on survival promoting action of NT-3 ([1]; 50 nM K-252b, rhNT-3 100 ng/ml): potentiated | effect on action of NGF on sensory neurons ([1]; 10 μM K-252b, rhNGF 100 ng/ml): inhibited | effect on trkB tyrosine phosphorylation, cell-free system (trkB): completely prevented | Ki [2]: 0.01 to 0.1 µM | inhibition of protein kinase activity of the platelet-derived growth factor [3]: inhibits | Ki (protein kinase C): 0.01 to 0.1 µM | effect on increase in dopamine uptake mediated by BDNF ([4]; K-252b 5 μM (Table 1)): prevented the increase in dopamine uptake; also recorded: inhibits the stimulatory action | activity at 5 µM ([4]; read-out: Dopamine uptake, % of Control, With K-252b (5 μM) + des-IGF-1 1 μg/ml): 201% | activity at 5 µM ([4]; read-out: Dopamine uptake, % of Control, With K-252b (5 μM) + rhBDNF 200 ng/ml): 119% | Dopamine uptake, Mean ± SEM ([4]; With K-252b (5 μM) + des-IGF-1 1 μg/ml): 22.9 ± 1.0 fmol/min/culture dish | Dopamine uptake, Mean ± SEM ([4]; With K-252b (5 μM) + rhBDNF 200 ng/ml): 13.6 ± 0.7 fmol/min/culture dish | Dopamine uptake, Mean ± SEM ([4]; With K-252b (5 μM), no growth factor (Control)): 11.4 ± 0.2 fmol/min/culture dish | effect on stimulatory action of bFGF and insulin on dopamine uptake ([4]; bFGF and insulin): does not inhibit | effect on stimulatory action of des-IGF-1 on dopamine uptake ([4]; des-IGF-1 1 μg/ml): not to inhibit | effect on action of BDNF on dopaminergic neurons ([4]; low concentrations of K-252b): did not potentiate | NT-3 mediated tyrosine phosphorylation of phospholipase C gamma-1 and other proteins (phospholipase C gamma-1; 50 nM K-252b + NT-3): enhanced | tyrosine phosphorylation of phospholipase C gamma-1 and other proteins in NGF treated cells (phospholipase C gamma-1; K-252b + NGF): inhibited
